Measurements published in patent US20230131966A1, “FUNGICIDAL AMIDES” (FMC Corporation, priority 2020, published 2023).

Assays:
Type in all cases: in vivo
[1] = system: Puccinia recondita f. sp. tritici; assay: Test B: wheat leaf rust control on wheat seedlings; conditions: 250 ppm, wheat seedlings, 100 = 100% disease control, 0 = no control
Zymoseptoria tritici = assay: Test C: wheat leaf blotch control on wheat seedlings; conditions: 250 ppm, wheat seedlings, 100 = 100% disease control, 0 = no control
[2] = system: Erysiphe graminis f. sp. tritici; assay: Test G: wheat powdery mildew control on wheat seedlings; conditions: 250 ppm, 100 = 100% disease control, 0 = no control
Phakopsora pachyrhizi = assay: Test A: Asian soybean rust control on soybean seedlings; conditions: 250 ppm, soybean seedlings, 100 = 100% disease control, 0 = no control
Plasmopara viticola = assay: Test D: grape downy mildew control on grape seedlings; conditions: 250 ppm, 100 = 100% disease control, 0 = no control
Phytophthora infestans = assay: whole plant or invertebrate; conditions: tomato seedlings, 100 = 100% disease control, 0 = no control; for Test F disease control rating: 250 ppm
Botrytis cinerea = assay: Test E: tomato Botrytis control on tomato seedlings; conditions: 250 ppm, 100 = 100% disease control, 0 = no control

For `COc1ccnc(C(=O)NC(C)C(=O)OC(C#N)c2ccccc2)c1O` (mixture of isomers) [Compound 159], the “Test B disease control rating” value [1] was 0%, the “Test C disease control rating” value (Zymoseptoria tritici) was 0% and the “Test G disease control rating” value [2] was 0%. For the same compound, the “Test A disease control rating” value (Phakopsora pachyrhizi) was 0%, the “Test D disease control rating” value (Plasmopara viticola) was 11% and the “Test F disease control rating” value (Phytophthora infestans) was 0%. For the same compound, the “Test E disease control rating” value (Botrytis cinerea) was 0%.
For `CCC(OC(=O)[C@H](C)NC(=O)c1nccc(OC)c1OC(C)=O)c1ccc(C2CCCCC2)cc1` (single isomer, unassigned) [Compound 130], the “Test B disease control rating” value [1] was 74%, the “Test C disease control rating” value (Zymoseptoria tritici) was 12% and the “Test G disease control rating” value [2] was 0%. The “Test A disease control rating” value (Phakopsora pachyrhizi) was 96%, the “Test D disease control rating” value (Plasmopara viticola) was 9% and the “Test F disease control rating” value (Phytophthora infestans) was 0%. For the same compound, the “Test E disease control rating” value (Botrytis cinerea) was 0%.
With `COc1ccnc(C(=O)NC(C)C(=O)OC(C)c2ccccc2[N+](=O)[O-])c1O` (mixture of isomers) [Compound 16] the “Test B disease control rating” value [1] was 0%, the “Test C disease control rating” value (Zymoseptoria tritici) was 76% and the “Test G disease control rating” value [2] was 0%. For the same compound, the “Test A disease control rating” value (Phakopsora pachyrhizi) was 13%, the “Test D disease control rating” value (Plasmopara viticola) was 59% and the “Test F disease control rating” value (Phytophthora infestans) was 0%. For the same compound, the “Test E disease control rating” value (Botrytis cinerea) was 0%.
For `COc1ccnc(C(=O)NC(C)C(=O)OC(C)C2CCC(c3ccccc3)CC2)c1O` (mixture of isomers) [Compound 103], the “Test B disease control rating” value [1] was 100%, the “Test C disease control rating” value (Zymoseptoria tritici) was 99% and the “Test G disease control rating” value [2] was 0%. For the same compound, the “Test A disease control rating” value (Phakopsora pachyrhizi) was 100%, the “Test D disease control rating” value (Plasmopara viticola) was 74% and the “Test F disease control rating” value (Phytophthora infestans) was 0%. For the same compound, the “Test E disease control rating” value (Botrytis cinerea) was 0%.
With `COc1ccnc(C(=O)NC(C)C(=O)OC(C)c2ccc(C#C[Si](C)(C)C)cc2)c1OC(C)=O` (mixture of isomers) [Compound 80] the “Test B disease control rating” value [1] was 100%, the “Test C disease control rating” value (Zymoseptoria tritici) was 98% and the “Test G disease control rating” value [2] was 0%. For the same compound, the “Test A disease control rating” value (Phakopsora pachyrhizi) was 100%, the “Test D disease control rating” value (Plasmopara viticola) was 28% and the “Test F disease control rating” value (Phytophthora infestans) was 0%. For the same compound, the “Test E disease control rating” value (Botrytis cinerea) was 0%.
With `COc1ccnc(C(=O)N[C@@H](C)C(=O)OC(C)c2ccc(CC3CCCCC3)cc2)c1OC(C)=O` (single isomer, unassigned) [Compound 128] the “Test B disease control rating” value [1] was 90%, the “Test C disease control rating” value (Zymoseptoria tritici) was 83% and the “Test G disease control rating” value [2] was 0%. The “Test A disease control rating” value (Phakopsora pachyrhizi) was 95%, the “Test D disease control rating” value (Plasmopara viticola) was 57% and the “Test F disease control rating” value (Phytophthora infestans) was 0%. For the same compound, the “Test E disease control rating” value (Botrytis cinerea) was 0%.
In the case of `COc1ccnc(C(=O)N[C@@H](C)C(=O)OC(C)c2ccc(C(C)C)cc2)c1O` (some centres unmarked) [Compound 118], the “Test B disease control rating” value [1] is reported as 99%, the “Test C disease control rating” value (Zymoseptoria tritici) is reported as 86% and the “Test G disease control rating” value [2] is reported as 0%. For the same compound, the “Test A disease control rating” value (Phakopsora pachyrhizi) was 100%, the “Test D disease control rating” value (Plasmopara viticola) was 85% and the “Test F disease control rating” value (Phytophthora infestans) was 0%. For the same compound, the “Test E disease control rating” value (Botrytis cinerea) was 0%.
`COc1ccnc(C(=O)N[C@@H](C)C(=O)OC(C)c2ccc(C3CCCCC3)cc2)c1OC(C)=O` (mixture of isomers) [Compound 31, N-[[3-(acetyloxy)-4-methoxy-2-pyridinyl]carbonyl]-L-alanine 1-(4-cyclohexylphenyl)ethyl ester] gave a pest or weed control at 250 ppm ([1]; Puccinia recondita, read-out: Test B disease control rating) of 100%, a pest or weed control at 250 ppm (Zymoseptoria tritici; Zymoseptoria tritici, read-out: Test C disease control rating) of 87% and a pest or weed control at 250 ppm ([2]; Blumeria graminis, read-out: Test G disease control rating) of 73%. For the same compound, the pest or weed control at 250 ppm (Phakopsora pachyrhizi; Phakopsora pachyrhizi, read-out: Test A disease control rating) was 100%, the pest or weed control at 250 ppm (Plasmopara viticola; Plasmopara viticola, read-out: Test D disease control rating) was 1% and the pest or weed control at 250 ppm (Phytophthora infestans; Phytophthora infestans, in Solanum lycopersicum, read-out: Test F disease control rating, 250 ppm) was 0%. For the same compound, the pest or weed control at 250 ppm (Botrytis cinerea; Botrytis cinerea, read-out: Test E disease control rating) was 0%.
In the case of `COc1ccnc(C(=O)N[C@@H](C)C(=O)OC(C2CCCCC2)C2CCCCC2)c1O` [Compound 45], the “Test B disease control rating” value [1] is reported as 0%, the “Test C disease control rating” value (Zymoseptoria tritici) is reported as 39% and the “Test G disease control rating” value [2] is reported as 0%. For the same compound, the “Test A disease control rating” value (Phakopsora pachyrhizi) was 100%, the “Test D disease control rating” value (Plasmopara viticola) was 43% and the “Test F disease control rating” value (Phytophthora infestans) was 9%. The “Test E disease control rating” value (Botrytis cinerea) was 0%.
`COc1ccnc(C(=O)NC(C)C(=O)OC(C)c2cccc(-n3ccc(C(F)(F)F)n3)c2)c1O` (mixture of isomers) [Compound 28] was tested, and the “Test B disease control rating” value [1] was 74%, the “Test C disease control rating” value (Zymoseptoria tritici) was 90% and the “Test G disease control rating” value [2] was 0%. For the same compound, the “Test A disease control rating” value (Phakopsora pachyrhizi) was 99%, the “Test D disease control rating” value (Plasmopara viticola) was 40% and the “Test F disease control rating” value (Phytophthora infestans) was 0%. The “Test E disease control rating” value (Botrytis cinerea) was 0%.
`COc1ccnc(C(=O)NC(C)C(=O)OC(C)c2ccc([N+](=O)[O-])cc2)c1OC(C)=O` (mixture of isomers) [Compound 20] was tested, and the “Test B disease control rating” value [1] was 68%, the “Test C disease control rating” value (Zymoseptoria tritici) was 64% and the “Test G disease control rating” value [2] was 0%. The “Test A disease control rating” value (Phakopsora pachyrhizi) was 0%, the “Test D disease control rating” value (Plasmopara viticola) was 4% and the “Test F disease control rating” value (Phytophthora infestans) was 0%. The “Test E disease control rating” value (Botrytis cinerea) was 0%.
In the case of `COc1ccnc(C(=O)NC(C)C(=O)OC(C)c2ccc(F)cc2Cc2ccccc2)c1O` (mixture of isomers) [Compound 12], the “Test B disease control rating” value [1] is reported as 97%, the “Test C disease control rating” value (Zymoseptoria tritici) is reported as 0% and the “Test G disease control rating” value [2] is reported as 0%. For the same compound, the “Test A disease control rating” value (Phakopsora pachyrhizi) was 99%, the “Test D disease control rating” value (Plasmopara viticola) was 83% and the “Test F disease control rating” value (Phytophthora infestans) was 0%. The “Test E disease control rating” value (Botrytis cinerea) was 0%.
In the case of `COc1ccnc(C(=O)N[C@@H](C)C(=O)OC(C)c2cccc3ccccc23)c1OC(C)=O` (single isomer, unassigned) [Compound 116], the “Test B disease control rating” value [1] is reported as 100%, the “Test C disease control rating” value (Zymoseptoria tritici) is reported as 95% and the “Test G disease control rating” value [2] is reported as 0%. The “Test A disease control rating” value (Phakopsora pachyrhizi) was 100%, the “Test D disease control rating” value (Plasmopara viticola) was 55% and the “Test F disease control rating” value (Phytophthora infestans) was 0%. The “Test E disease control rating” value (Botrytis cinerea) was 0%.
`CCOC(=O)c1ccn(-c2ccc(C(C)OC(=O)C(C)NC(=O)c3nccc(OC)c3OC(C)=O)cc2)n1` (mixture of isomers) [Compound 48] was tested, and the “Test B disease control rating” value [1] was 55%, the “Test C disease control rating” value (Zymoseptoria tritici) was 8% and the “Test G disease control rating” value [2] was 0%. The “Test A disease control rating” value (Phakopsora pachyrhizi) was 55%, the “Test D disease control rating” value (Plasmopara viticola) was 4% and the “Test F disease control rating” value (Phytophthora infestans) was 0%. The “Test E disease control rating” value (Botrytis cinerea) was 0%.
